# Experimental data from US20260325510A1, “COMBINATIONS COMPRISING AN ATR INHIBITOR AND A PARP INHIBITOR AND METHODS OF USE THEREOF” (Jazz Pharmaceuticals Therapeutics, Inc., priority 2023, published 2026).
# What was measured:
# [1] = Baseline monotherapy tolerability, 4 weeks IV (complete blood count); assay type: in vivo, female athymic nude mice; details: 60 mg/kg IV, three times weekly
# Procedure: Maximum tolerated dose studies were conducted on healthy, 6-8 week-old female athymic nude mice (Jackson Laboratories). For baseline monotherapy tolerability, 60 mg/kg of niraparib both in free and liposomal form was IV administered to nude mice at a dosing schedule of every other day followed by a two-day holiday (i.e., three days per week) for 4-weeks (n=5 for each cohort). Free drug was supplied in hydroxybetacyclodextrin in HEPES Buffered Saline with 5% dextrose, pH adjusted to 7.4. Study mice were then sacrificed at 24-hours post final injection with endpoint blood collection by cardiac puncture. Complete blood count (CBC) was then conducted on a Vetscan HM5 hematology analyzer (Zoetis, New Jersey, USA).
# This study was conducted over a 4-week period to better capture hematopoietic turnover. Athymic nude mice were selected due to the presence of normal levels of neutrophils, monocytes, and red blood cells on top of a reduced number of non-functional lymphocytes. The immunocompromised nature of athymic nude mice allowed for better comparative translation of dose sensitivity to fully immunocompromised mice (i.e. NSG) that are required for xenograft studies.
# [2] = Hematology tolerability study; assay type: in vivo, female C57BL/6 mice; details: free ATR inhibitor in combination with free niraparib
# Procedure: In order to study the effects of hematology tolerability under different dosing regimens, 8-12 week old, female C57BL/6 mice were used. Body weight was measured qd×5, then biweekly to the end of the study. Animals were weighed and monitored for survival and in-life observations were collected at the time of weight measurement. […] Mice were monitored individually to endpoint which was 18 days. Full volume blood was collected by terminal cardiac puncture under isoflurane anesthesia and analyzed for reticulocyte count/number, red blood cell count/number, hemoglobin, hematocrit, platelet count/number, white blood cell count/number, neutrophil count/number, monocyte count/number and lymphocyte count/number.
smiles,measurement,setting,value
"NC(=O)c1cccc2cn(-c3ccc([C@@H]4CCCNC4)cc3)nc12 [FREE-NIRB, niraparib]",hematological toxicity,[1],significant hematological toxicity in the form of macrocytic anemia
CNCc1ccc(-c2cc(-c3nc(-c4ccc(S(=O)(=O)C(C)C)cc4)cnc3N)on2)cc1 [berzosertib],hematological toxicity,[2],severe reticulocytopenia and leukopenia
